Our source for the IC50 and Ki values is BindingDB's records for doi:10.1124/jpet.105.097006 (Acadia Pharmaceuticals, 2006).

In test [1] the target is T1, 5-hydroxytryptamine receptor 2A (Homo sapiens, UniProt P28223). As to the kind of experiment: Receptor Selection and Amplification Technology.
In test [2] the target is T1, 5-hydroxytryptamine receptor 2A. Description: Radioligand Binding Assay. The settings on record: 4 °C. As for the experimental part:
(§1) For the membrane binding, NIH-3T3 cells were grown to 70% confluence in 15-cm2 dishes and transfected with 10 ug of receptor plasmid DNA using Polyfect transfection reagent (QIAGEN, Valencia, CA) according to manufacturer s protocols. Two days after transfection, cells expressing the desired serotonin receptor were homogenized in 20 mM HEPES/10 mM EDTA and spun down at 11,000g at 4 C for 30 min. The supernatant was discarded, and the pellet was resuspended in 20 mM HEPES/1 mM EDTA and spun down at the same setting. The pellet was then resuspended in 20 mM HEPES/0.5 mM EDTA, and membranes were used for binding assays. Bradford analysis was used to determine total membrane protein.

Test [3] has as its target T2, 5-hydroxytryptamine receptor 2C (Homo sapiens, UniProt P28335).
T2 sequence (P28335 whole entry): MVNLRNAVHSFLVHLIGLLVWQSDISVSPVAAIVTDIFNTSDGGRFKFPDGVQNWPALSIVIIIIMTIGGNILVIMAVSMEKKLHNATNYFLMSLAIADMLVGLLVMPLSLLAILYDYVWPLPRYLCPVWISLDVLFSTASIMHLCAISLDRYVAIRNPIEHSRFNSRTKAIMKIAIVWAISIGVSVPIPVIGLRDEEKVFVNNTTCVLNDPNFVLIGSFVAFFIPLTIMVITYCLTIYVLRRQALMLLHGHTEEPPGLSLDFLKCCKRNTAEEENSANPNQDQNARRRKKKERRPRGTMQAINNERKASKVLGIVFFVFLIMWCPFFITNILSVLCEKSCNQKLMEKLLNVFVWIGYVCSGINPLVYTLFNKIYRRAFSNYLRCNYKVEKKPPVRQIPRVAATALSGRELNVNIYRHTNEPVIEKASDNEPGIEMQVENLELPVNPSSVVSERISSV
As to the kind of experiment: Radioligand Binding Assay. The settings on record: 4 °C. The method, then:
as §1

For test [4], the target named is T2, 5-hydroxytryptamine receptor 2C. Description: Receptor Selection and Amplification Technology.
Test [5] addresses 5-hydroxytryptamine receptor 2B (Homo sapiens, UniProt P41595). Description: Receptor Selection and Amplification Technology.

Broadly, the IC50 is the concentration that gives 50% inhibition. Higher therefore signals weaker potency. A word on the Ki: it is a measure of affinity in units of concentration, obtained from inhibition or displacement. A lower Ki goes with higher affinity.

T1 sequence (P28223 whole entry): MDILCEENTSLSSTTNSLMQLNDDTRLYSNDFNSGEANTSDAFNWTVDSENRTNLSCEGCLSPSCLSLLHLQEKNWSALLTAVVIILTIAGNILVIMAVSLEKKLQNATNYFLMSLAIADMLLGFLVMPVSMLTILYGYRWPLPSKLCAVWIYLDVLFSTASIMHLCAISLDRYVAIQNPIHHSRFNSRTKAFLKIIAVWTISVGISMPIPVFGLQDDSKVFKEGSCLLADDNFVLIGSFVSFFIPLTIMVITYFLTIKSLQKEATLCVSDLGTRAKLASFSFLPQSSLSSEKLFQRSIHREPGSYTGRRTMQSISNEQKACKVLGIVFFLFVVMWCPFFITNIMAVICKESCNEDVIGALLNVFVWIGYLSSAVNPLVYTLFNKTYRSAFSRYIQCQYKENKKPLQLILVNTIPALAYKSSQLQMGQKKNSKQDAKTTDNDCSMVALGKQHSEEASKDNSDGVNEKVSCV
5-hydroxytryptamine receptor 2B, sequence (P41595 whole entry): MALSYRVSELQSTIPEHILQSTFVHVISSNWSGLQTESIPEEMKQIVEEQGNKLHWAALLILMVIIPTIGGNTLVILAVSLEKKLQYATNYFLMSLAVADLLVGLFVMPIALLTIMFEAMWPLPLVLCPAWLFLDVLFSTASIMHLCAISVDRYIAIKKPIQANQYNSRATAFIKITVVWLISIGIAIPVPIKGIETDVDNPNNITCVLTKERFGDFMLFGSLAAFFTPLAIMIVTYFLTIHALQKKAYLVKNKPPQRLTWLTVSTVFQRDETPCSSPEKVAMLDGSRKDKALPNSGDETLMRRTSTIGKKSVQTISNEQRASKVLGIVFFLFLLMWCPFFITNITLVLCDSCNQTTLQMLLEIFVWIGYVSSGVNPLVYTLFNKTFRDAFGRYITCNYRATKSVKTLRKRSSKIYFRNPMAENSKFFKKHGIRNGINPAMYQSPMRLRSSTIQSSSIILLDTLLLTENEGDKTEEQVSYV

Regarding `CN(C)CCON/C(=C/C=C1C=CC(=O)C=C1)c1ccccc1F` [eplivanserin], in test [1], 1 nM corresponded to half-maximal inhibition (IC50). Moreover, the Ki in test [2] came to 0.046 nM; in test [3] it was 1.3 nM.

For the compound `Cc1nc2sccn2c(=O)c1CCN1CCC(=C(c2ccc(F)cc2)c2ccc(F)cc2)CC1`, the IC50 in test [4] was determined as 4.5 nM; in test [5], 3 nM. In test [3], this compound showed a Ki of 0.44 nM.
